Measured values from patent publication US12285399B2, “Composition comprising bornyl acetate or pharmaceutically acceptable salt thereof as active ingredient for prevention or treatment of stress-related disorder” (UNIVERSITY-INDUSTRY COOPERATION GROUP OF KYUNG HEE …, priority 2019, dated 2025).

Assays:
Assay type in all cases: in vivo, C57BL/6NTac mice
CD11b protein = assay: Western blot of CD11b protein in brain (hippocampus and amygdala) of CRS model; settings: CRS+BA group
Method: In order to confirm the antidepressant efficacy of bornyl acetate on the animal model of stress depression, an animal model of depression induced by chronic restrained stress (CRS) was prepared. Specifically, the animal model, 8-week-old male C57BL/6NTac mice after birth (Narabiotechnology, Korea; weight 22-24 g) had been stabilized for 1 week. A 50 ml conical tube (SPL Life sciences, Pocheon, Korea) was punched to make a hole, thereby making a restraint frame. The mice were put in the frame and restrained for 2 hours every day for 14 days. After restraint, the mice were allowed to freely ingest water and food in the home cage. The hippocampus and amygdala of the brain were excised. They were added to 200 μl of a protein lysis buffer (10 mM Tris, 0.5 mM EDTA, 0.25 M sucrose), and proteins were isolated using a grinder. The isolated protein was quantified by the Bradford method (Bio-rad, USA) using bovine serum albumin (BSA, Sigma, USA), and then 25 μg of the protein was separated by 10% sodium dodecyl sulfate-polyacrylamide gel electrophoresis (SDS-PAGE) and transferred to polyvinylidene difluoride (PVDF) membrane (Gendepot, UK). PVDF membranes were blocked in 5% skimmed milk (BD, USA) for 1 hour. […] Identification and quantitative analysis of proteins were analyzed using an imaging device ChemiDoc XRS+ (Bio-Rad). […]

[1] = tested on: animal model of stress depression induced by chronic restrained stress (CRS); assay: Forced swimming test (FST) in CRS-induced stress depression model; settings: CRS+BA group, oral daily 1 hour before restraint, 24 hours after TST, last 4 minutes of 6-minute test; dose not stated
Method: In order to confirm the antidepressant efficacy of bornyl acetate on the animal model of stress depression, an animal model of depression induced by chronic restrained stress (CRS) was prepared. Specifically, the animal model, 8-week-old male C57BL/6NTac mice after birth (Narabiotechnology, Korea; weight 22-24 g) had been stabilized for 1 week. A 50 ml conical tube (SPL Life sciences, Pocheon, Korea) was punched to make a hole, thereby making a restraint frame. The mice were put in the frame and restrained for 2 hours every day for 14 days. After restraint, the mice were allowed to freely ingest water and food in the home cage. 24 hours after the tail suspension test, distilled water (23-24° C.) was filled to a height of about 14 cm in a circular water tank (diameter 15×height 25 cm), and the mice were dropped and forced to swim. […] Bornyl acetate (25, 50 and 100 mg/kg) of the present invention was dissolved in 0.1 M PBS, and the mixture was orally administered 1 hour before inducing restrained stress every day. Bornyl acetate was administered in a dose per individual of 100 μl.

[2] = tested on: animal model of stress depression induced by chronic restrained stress (CRS); assay: Tail suspension test (TST) in CRS-induced stress depression model; settings: CRS+BA group, oral daily 1 hour before restraint, day 14, last 4 minutes of 6-minute test; dose not stated
Method: In order to confirm the antidepressant efficacy of bornyl acetate on the animal model of stress depression, an animal model of depression induced by chronic restrained stress (CRS) was prepared. Specifically, the animal model, 8-week-old male C57BL/6NTac mice after birth (Narabiotechnology, Korea; weight 22-24 g) had been stabilized for 1 week. A 50 ml conical tube (SPL Life sciences, Pocheon, Korea) was punched to make a hole, thereby making a restraint frame. The mice were put in the frame and restrained for 2 hours every day for 14 days. After restraint, the mice were allowed to freely ingest water and food in the home cage. On the 14th day after chronic restrained stress was induced, the tail tip of the mouse was fixed and hanged upside down on a horizontal bar (1 cm in diameter) installed at a height of about 50 cm from the floor, and then the time of immobility was measured. Measurements were made during the last 4 minutes of the 6-minute test period. Bornyl acetate (25, 50 and 100 mg/kg) of the present invention was dissolved in 0.1 M PBS, and the mixture was orally administered 1 hour before inducing restrained stress every day. Bornyl acetate was administered in a dose per individual of 100 μl.

CC(=O)OC1CC2CCC1(C)C2(C)C (stereo not shown) [BA, bornyl acetate]
expression of CD11b protein (CRS-induced increase) (CD11b protein; amygdala): significantly inhibited | expression of CD11b protein (CRS-induced increase) (CD11b protein; hippocampus): significantly inhibited | time of immobility, forced swimming test [1]: 85.2 s | time of immobility, tail suspension test [2]: 91.4 s
